According to ChEMBL document CHEMBL1138245, “Discovery of N1-(6-chloroimidazo[2,1-b][1,3]thiazole-5-sulfonyl)tryptamine as a potent, selective, and orally active 5-HT(6) receptor agonist” (J Med Chem, 2007):

Assays:
[1] = target: T1, 5-hydroxytryptamine receptor 6 (Homo sapiens, UniProt P50406); assay: Displacement of [3H]LSD from human 5HT6 receptor expressed in HeLa cells; format: cell-based
[2] = target: T1, 5-hydroxytryptamine receptor 6; assay: Agonist activity at human 5HT6 receptor expressed in HeLa cells assessed as cAMP production; format: functional, cell-based

T1 sequence (P50406 whole entry): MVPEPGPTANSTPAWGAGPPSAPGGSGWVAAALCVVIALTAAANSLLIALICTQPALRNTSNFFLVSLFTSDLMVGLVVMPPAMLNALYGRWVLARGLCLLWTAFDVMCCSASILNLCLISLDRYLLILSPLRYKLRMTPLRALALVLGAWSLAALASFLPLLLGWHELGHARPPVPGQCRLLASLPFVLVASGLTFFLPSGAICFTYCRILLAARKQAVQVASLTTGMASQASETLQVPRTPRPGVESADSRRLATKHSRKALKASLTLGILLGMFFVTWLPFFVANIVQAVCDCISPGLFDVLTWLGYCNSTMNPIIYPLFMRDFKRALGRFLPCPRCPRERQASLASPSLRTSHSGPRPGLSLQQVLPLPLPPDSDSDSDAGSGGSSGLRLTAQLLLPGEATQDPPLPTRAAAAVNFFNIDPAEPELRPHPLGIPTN

SMILES	Ki [1] [nM]	EC50 [2] [nM]	Emax [2] [%]
NCCc1cn(S(=O)(=O)c2ccc(I)cc2)c2ccccc12	14		
NCCc1cn(S(=O)(=O)c2ccccc2)c2ccccc12	10	73	92
NCCc1cn(S(=O)(=O)c2cccc(Cl)c2)c2ccccc12	6	108	100
NCCc1cn(S(=O)(=O)c2ccc(Cl)cc2)c2ccccc12	10	174	93.5
